# Measured values as given in PMC7413254 (Nature Communications, 2020).
# Read-outs that look alike come from different tables or passages of the source.
# Experiments:
# non-expressing oocytes [1] = assay type: cell-based, Xenopus laevis; settings: total [3H]CQ transport; for Uptake of [3H]CQ (% non-expressing oocyte control), trans-stimulation: non-expressing oocytes, normalised to the oocyte type control; for Uptake of [3H]CQ (% PfCRTDd2 control), trans-stimulation, non-expressing oocytes: mean ± SEM, SEM
# Method in brief: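 Oocytes (ten per treatment, ≥4 independent frogs/days) were preloaded by injecting VF-6 in 25 nL ND96 at pH 5.0, 5.5, 6.0 or 7.0, or Na^+-free choline buffer, then uptake run 1.5 h, 27.5 °C, ND96 pH 5.5 by default. Internal concentrations assumed ~400 nL oocyte volume.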
# PfCRT [2] = experiment: Test of solutes as potential co-substrates for influx of VF-6 via PfCRT into the oocyte; assay type: cell-based, Plasmodium falciparum; set-up: key: X: Compounds that have been tested as potential co-substrates but are not required for influx of VF-6 via PfCRT into the oocyte; settings: X = tested
# PfCRT^Ecu1110 [3] = target: T1, PfCRT^Ecu1110 (Plasmodium falciparum, UniProt Q9N623, A220S/I356L/K76T/N326D); experiment: [3H]CQ uptake into Xenopus oocytes, cis-inhibition by unlabelled solute; assay type: cell-based
# Method in brief: (§1)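 Oocytes expressing PfCRT isoforms, or non-expressing controls, were incubated 1.5 h at 27.5 °C in ND96 buffer pH 5.5 (96 mM NaCl, 2 mM KCl, 1 mM MgCl2, 1.8 mM CaCl2, 10 mM MES, 10 mM Tris-base), measuring uptake from acidic medium into cytosol. Oocytes were washed ice-cold, SDS-lysed and counted by scintillation.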
# PfCRT^Dd2 [4] = target: T2, PfCRT^Dd2 (Plasmodium falciparum, UniProt Q9N623, A220S/I356T/K76T/M74I/N326S/N75E/Q271E/R371I); experiment: as above; assay type: cell-based
# Method in brief: as §1
# PfCRT^Ecu1110 [5] = target: T1, PfCRT^Ecu1110; experiment: cell-based; assay type: cell-based; settings: […]
# Method in brief: (§2)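 Transport measured in Xenopus oocytes expressing the transporters, 1.5 h at 27.5 °C in ND96 pH 5.5 unless noted. For trans-stimulation, VF-6 injected in 25 nL ND96 at pH 5.0–7.0 or Na^+-free (choline) buffer; intracellular levels based on ~400 nL oocyte volume. Ten oocytes per treatment, ≥4 experiments.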
# PfNT1 = target: T3, PfNT1 (Plasmodium falciparum, UniProt Q8IDM6); experiment: cell-based; assay type: cell-based; settings: for activity at 5000 µM: total [3H]CQ transport
# T3 construct: expressed in transfected cells; host or cells: Xenopus laevis oocytes (stage V-VI), cRNA-injected
# Method in brief: as §2
# PfCRT^Dd2 [6] = target: T2, PfCRT^Dd2; experiment: cell-based; assay type: cell-based; settings: […]; for activity at 45000 µM: [test solute]i = 45 mM (30 mM for some solutes due to solubility)
# Method in brief: as §2
# PfCRT^3D7 [7] = target: T4, PfCRT^3D7 (Plasmodium falciparum, UniProt Q8IBZ9); experiment: cell-based; assay type: cell-based
# Method in brief: as §2
# PfCRT [8] = experiment: Potential co-substrates tested for influx of VF-6 via PfCRT into the oocyte; assay type: cell-based, Plasmodium falciparum; set-up: key: X: Compounds that have been tested as potential co-substrates but are not required for influx of VF-6 via PfCRT into the oocyte
# non-expressing oocytes [9] = experiment: cells; assay type: cell-based, Xenopus laevis; settings: Xenopus laevis, total [3H]CQ transport; for inhibition at 500 µM: [test solute] = 0.5 mM; for inhibition at 1000 µM: [test solute] = 1 mM; for inhibition at 2000 µM: [test solute] = 2 mM
# Method in brief: as §1
# PfCRT^3D7 [10] = target: T4, PfCRT^3D7; experiment: cell-based; assay type: cell-based; settings: total [3H]CQ transport; for inhibition at 500 µM: [test solute] = 0.5 mM; for inhibition at 1000 µM: [test solute] = 1 mM; for inhibition at 2000 µM: [test solute] = 2 mM
# Method in brief: as §1
# [11] = read-out: PfCRT-mediated [3H]CQ transport, cis-inhibition (% PfCRTEcu1110 control)
# [12] = read-out: Uptake of [3H]CQ (% PfCRTDd2 control), cis-inhibition, PfCRTEcu1110, SEM
# [13] = read-out: Uptake of [3H]CQ (% PfCRTEcu1110 control), cis-inhibition
# [14] = read-out: [3H]CQ transport (% PfCRTEcu1110 control), cis-inhibition, PfCRTEcu1110, SEM
# [15] = read-out: PfCRT-mediated [3H]CQ transport, cis-inhibition (% PfCRTDd2 control)
# [16] = read-out: Uptake of [3H]CQ (% PfCRTDd2 control), cis-inhibition, PfCRTDd2, SEM
# [17] = Oocyte, mean ± SEM, SEM, read-out: Uptake of [3H]CQ (% PfCRTDd2 control), cis-inhibition, non-expressing oocytes
# [18] = non-expressing oocytes, normalised to the oocyte type control, read-out: Uptake of [3H]CQ (% non-expressing oocyte control), cis-inhibition
# [19] = PfCRT3D7 oocytes, normalised to the oocyte type control, read-out: Uptake of [3H]CQ (% PfCRT3D7 control), cis-inhibition
# [20] = mean ± SEM, SEM, read-out: Uptake of [3H]CQ (% PfCRTDd2 control), cis-inhibition, PfCRT3D7
# T3 sequence (Q8IDM6 whole entry): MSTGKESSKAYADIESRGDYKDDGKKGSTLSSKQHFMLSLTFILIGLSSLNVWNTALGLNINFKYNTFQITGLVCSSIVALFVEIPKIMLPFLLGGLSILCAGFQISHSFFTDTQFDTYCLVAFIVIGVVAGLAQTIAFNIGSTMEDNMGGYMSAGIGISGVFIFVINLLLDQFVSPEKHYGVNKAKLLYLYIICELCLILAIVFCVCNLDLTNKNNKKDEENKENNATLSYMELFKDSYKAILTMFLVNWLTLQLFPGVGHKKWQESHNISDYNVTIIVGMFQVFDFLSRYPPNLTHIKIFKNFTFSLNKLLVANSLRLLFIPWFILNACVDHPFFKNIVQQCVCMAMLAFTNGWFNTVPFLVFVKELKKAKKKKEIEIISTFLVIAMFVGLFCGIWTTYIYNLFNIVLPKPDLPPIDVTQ
# T1 sequence (Q9N623 whole entry A220S/I356L/K76T/N326D, canonical isoform): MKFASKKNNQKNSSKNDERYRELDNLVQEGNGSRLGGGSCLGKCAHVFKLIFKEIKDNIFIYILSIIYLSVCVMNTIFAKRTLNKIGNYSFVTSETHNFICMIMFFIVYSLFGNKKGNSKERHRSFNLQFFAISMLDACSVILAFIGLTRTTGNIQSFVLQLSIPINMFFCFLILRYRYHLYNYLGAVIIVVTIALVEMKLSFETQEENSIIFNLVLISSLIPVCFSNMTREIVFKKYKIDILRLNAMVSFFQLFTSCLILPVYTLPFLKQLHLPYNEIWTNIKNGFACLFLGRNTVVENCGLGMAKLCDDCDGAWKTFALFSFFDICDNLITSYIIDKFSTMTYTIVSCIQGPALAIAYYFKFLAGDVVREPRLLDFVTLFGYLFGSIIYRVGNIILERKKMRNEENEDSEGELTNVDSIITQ
# T2 sequence (Q9N623 whole entry A220S/I356T/K76T/M74I/N326S/N75E/Q271E/R371I): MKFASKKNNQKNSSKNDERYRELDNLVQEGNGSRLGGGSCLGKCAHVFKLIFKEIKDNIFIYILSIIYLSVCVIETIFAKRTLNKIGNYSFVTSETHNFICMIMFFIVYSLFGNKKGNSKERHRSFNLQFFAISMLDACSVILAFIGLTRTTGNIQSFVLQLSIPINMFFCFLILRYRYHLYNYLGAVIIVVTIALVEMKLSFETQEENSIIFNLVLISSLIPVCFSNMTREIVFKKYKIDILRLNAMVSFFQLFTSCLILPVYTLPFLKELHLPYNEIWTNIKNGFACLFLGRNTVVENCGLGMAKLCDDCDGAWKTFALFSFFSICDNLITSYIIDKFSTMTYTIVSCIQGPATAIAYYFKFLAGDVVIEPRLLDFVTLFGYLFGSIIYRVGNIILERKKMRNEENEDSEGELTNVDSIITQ
# T4 sequence (Q8IBZ9 59-398): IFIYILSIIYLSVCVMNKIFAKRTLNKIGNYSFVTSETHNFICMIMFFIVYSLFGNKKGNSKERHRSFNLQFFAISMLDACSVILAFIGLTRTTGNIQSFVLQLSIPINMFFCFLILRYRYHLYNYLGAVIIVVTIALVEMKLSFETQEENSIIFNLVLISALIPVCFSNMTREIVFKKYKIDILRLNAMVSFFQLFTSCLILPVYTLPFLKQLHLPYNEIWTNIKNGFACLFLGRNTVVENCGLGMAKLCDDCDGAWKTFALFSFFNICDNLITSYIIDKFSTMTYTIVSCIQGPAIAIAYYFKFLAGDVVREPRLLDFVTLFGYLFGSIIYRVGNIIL
smiles,measurement,setting,value
C[C@H](N)C(=O)O [L-alanine],"Uptake of [3H]CQ (% non-expressing oocyte control), trans-stimulation",non-expressing oocytes [1]; [test solute]i = 5 mM,99 ± 3.2 % non-expressing oocyte control
same,"Uptake of [3H]CQ (% non-expressing oocyte control), trans-stimulation",non-expressing oocytes [1]; [test solute]i = 45 mM (30 mM for some solutes due to solubility),99 ± 2.2 % non-expressing oocyte control
same,"Uptake of [3H]CQ (% PfCRTDd2 control), trans-stimulation, non-expressing oocytes",non-expressing oocytes [1]; [test solute]i = 5 mM (intracellular),3.1 ± 0.03 % PfCRTDd2 control
same,"Uptake of [3H]CQ (% PfCRTDd2 control), trans-stimulation, non-expressing oocytes",non-expressing oocytes [1]; [test solute]i = 45 mM (intracellular; 30 mM for some solutes due to solubility),3.3 ± 0.08 % PfCRTDd2 control
same,Tested as potential co-substrate but not required for influx of VF-6 via PfCRT into the oocyte,PfCRT [2],X
same,inhibition at 500 µM,PfCRT^Ecu1110 [3]; [11],93 ± 1.3%
same,inhibition at 1000 µM,PfCRT^Ecu1110 [3]; [11],95 ± 1.7%
same,inhibition at 500 µM,PfCRT^Ecu1110 [3]; [12],31 ± 2.5%
same,inhibition at 1000 µM,PfCRT^Ecu1110 [3]; [12],32 ± 2.1%
same,inhibition at 2000 µM,PfCRT^Ecu1110 [3]; [12],32 ± 0.9%
same,inhibition at 500 µM,PfCRT^Ecu1110 [3]; [13],96 ± 2.5%
same,inhibition at 1000 µM,PfCRT^Ecu1110 [3]; [13],97 ± 2.5%
same,inhibition at 2000 µM,PfCRT^Ecu1110 [3]; [13],98 ± 4.1%
same,inhibition at 500 µM,PfCRT^Ecu1110 [3]; [14],28 ± 0.6%
same,inhibition at 1000 µM,PfCRT^Ecu1110 [3]; [14],29 ± 1.1%
same,inhibition at 2000 µM,PfCRT^Ecu1110 [3]; [14],29 ± 1.5%
same,inhibition at 500 µM,PfCRT^Dd2 [4]; [15],95 ± 2.1%
same,inhibition at 1000 µM,PfCRT^Dd2 [4]; [15],94 ± 3.8%
same,inhibition at 500 µM,PfCRT^Dd2 [4]; [16],97 ± 4.6%
same,inhibition at 1000 µM,PfCRT^Dd2 [4]; [16],96 ± 3.3%
same,inhibition at 2000 µM,PfCRT^Dd2 [4]; [16],98 ± 3.1%
same,activity at 5000 µM,"PfCRT^Ecu1110 [5]; pH 5.5, read-out: PfCRT-mediated [3H]CQ transport, trans-stimulation (% PfCRTEcu1110 control), [test solute]i = 5 mM (intracellular), PfCRTEcu1110 oocytes, normalised to oocyte type control",97 ± 1.4%
same,activity at 5000 µM,"PfCRT^Ecu1110 [5]; pH 5.5, read-out: Uptake of [3H]CQ (% PfCRTEcu1110 control), trans-stimulation, PfCRTEcu1110 oocytes, [test solute]i = 5 mM, total [3H]CQ transport, normalised to the oocyte type control",99 ± 3.2%
same,activity at 45000 µM,"PfCRT^Ecu1110 [5]; pH 5.5, read-out: Uptake of [3H]CQ (% PfCRTEcu1110 control), trans-stimulation, PfCRTEcu1110 oocytes, [test solute]i = 45 mM (30 mM for some solutes due to solubility), total [3H]CQ transport, normalised to the oocyte type control",101 ± 2.1%
same,activity at 5000 µM,"PfCRT^Ecu1110 [5]; read-out: Uptake of [3H]CQ (% PfCRTDd2 control), trans-stimulation, PfCRTEcu1110, total [3H]CQ transport, [test solute]i = 5 mM (intracellular), mean ± SEM, SEM",35 ± 2.6%
same,activity at 45000 µM,"PfCRT^Ecu1110 [5]; read-out: Uptake of [3H]CQ (% PfCRTDd2 control), trans-stimulation, PfCRTEcu1110, total [3H]CQ transport, [test solute]i = 45 mM (intracellular; 30 mM for some solutes due to solubility), mean ± SEM, SEM",36 ± 1.5%
same,activity at 5000 µM,"PfNT1; PfNT1 oocytes, [test solute]i = 5 mM, normalised to the oocyte type control, read-out: Uptake of [3H]CQ (% PfNT1 control), trans-stimulation",99 ± 3.1%
same,activity at 45000 µM,"PfNT1; SEM, read-out: Uptake of [3H]CQ (% PfCRTDd2 control), trans-stimulation, PfNT1",3.2 ± 0.02%
same,activity at 45000 µM,"PfNT1; read-out: Uptake of [3H]CQ (% PfNT1 control), trans-stimulation",99 ± 3.6%
same,activity at 5000 µM,"PfNT1; [test solute]i = 5 mM (intracellular), mean ± SEM, SEM, read-out: Uptake of [3H]CQ (% PfCRTDd2 control), trans-stimulation, PfNT1",2.2 ± 0.03%
same,activity at 5000 µM,"PfCRT^Dd2 [6]; pH 5.5, read-out: PfCRT-mediated [3H]CQ transport, trans-stimulation (% PfCRTDd2 control), [test solute]i = 5 mM (intracellular), PfCRTDd2 oocytes, normalised to oocyte type control",95 ± 1.9%
same,activity at 5000 µM,"PfCRT^Dd2 [6]; pH 5.5, read-out: Uptake of [3H]CQ (% PfCRTDd2 control), trans-stimulation, PfCRTDd2, total [3H]CQ transport, [test solute]i = 5 mM (intracellular), mean ± SEM, SEM",97 ± 3.3%
same,activity at 5000 µM,"PfCRT^Dd2 [6]; pH 5.5, read-out: Uptake of [3H]CQ (% PfCRTDd2 control), trans-stimulation, PfCRTDd2 oocytes, [test solute]i = 5 mM, total [3H]CQ transport, normalised to the oocyte type control",97 ± 3.3%
same,activity at 45000 µM,"PfCRT^Dd2 [6]; pH 5.5, read-out: Uptake of [3H]CQ (% PfCRTDd2 control), trans-stimulation, PfCRTDd2 oocytes, total [3H]CQ transport, normalised to the oocyte type control",98 ± 1.9%
same,activity at 5000 µM,"PfCRT^Dd2 [6]; pH 5.5, read-out: [3H]CQ transport (% PfCRTDd2 control), trans-stimulation, PfCRTDd2, trans-stimulation, [test solute]i = 5 mM (injected), PfCRT-mediated component (background subtracted), mean ± SEM, SEM",95 ± 1.9%
same,activity at 45000 µM,"PfCRT^Dd2 [6]; pH 5.5, read-out: [3H]CQ transport (% PfCRTDd2 control), trans-stimulation, PfCRTDd2, trans-stimulation, PfCRT-mediated component (background subtracted), mean ± SEM, SEM",96 ± 3.2%
same,activity at 5000 µM,"PfCRT^3D7 [7]; PfCRT3D7 oocytes, [test solute]i = 5 mM, total [3H]CQ transport, normalised to the oocyte type control, read-out: Uptake of [3H]CQ (% PfCRT3D7 control), trans-stimulation",99 ± 3.6%
same,"[3H]CQ transport (% PfCRT3D7 control), trans-stimulation, PfCRT3D7",PfCRT^3D7 [7]; SEM,0.3 ± 0.01 % PfCRT3D7 control
same,activity at 5000 µM,"PfCRT^3D7 [7]; [test solute]i = 5 mM (intracellular), PfCRT3D7 oocytes, normalised to oocyte type control, read-out: PfCRT-mediated [3H]CQ transport, trans-stimulation (% PfCRT3D7 control)",97 ± 2.1%
same,activity at 45000 µM,"PfCRT^3D7 [7]; SEM, read-out: Uptake of [3H]CQ (% PfCRTDd2 control), trans-stimulation, PfCRT3D7",3.3 ± 0.05%
same,activity at 45000 µM,"PfCRT^3D7 [7]; read-out: PfCRT-mediated [3H]CQ transport, trans-stimulation (% PfCRT3D7 control)",97 ± 2.3%
same,activity at 45000 µM,"PfCRT^3D7 [7]; read-out: Uptake of [3H]CQ (% PfCRT3D7 control), trans-stimulation",99 ± 3.2%
same,activity at 5000 µM,"PfCRT^3D7 [7]; total [3H]CQ transport, [test solute]i = 5 mM (intracellular), mean ± SEM, SEM, read-out: Uptake of [3H]CQ (% PfCRTDd2 control), trans-stimulation, PfCRT3D7",3.3 ± 0.05%
same,Tested as potential co-substrate but not required for influx of VF-6 via PfCRT into the oocyte,PfCRT [8],X
same,inhibition at 500 µM,non-expressing oocytes [9]; [17],3.5 ± 0.08%
same,inhibition at 1000 µM,non-expressing oocytes [9]; [17],3.7 ± 0.08%
same,inhibition at 2000 µM,non-expressing oocytes [9]; [17],2.2 ± 0.06%
same,inhibition at 500 µM,non-expressing oocytes [9]; [18],99 ± 5.3%
same,inhibition at 1000 µM,non-expressing oocytes [9]; [18],100 ± 3.5%
same,inhibition at 2000 µM,non-expressing oocytes [9]; [18],99 ± 1.4%
same,inhibition at 500 µM,PfCRT^3D7 [10]; [19],99 ± 3.2%
same,inhibition at 1000 µM,PfCRT^3D7 [10]; [19],100 ± 3.6%
same,inhibition at 2000 µM,PfCRT^3D7 [10]; [19],99 ± 4.6%
same,inhibition at 500 µM,PfCRT^3D7 [10]; [20],4.2 ± 0.03%
same,inhibition at 1000 µM,PfCRT^3D7 [10]; [20],3.1 ± 0.07%
same,inhibition at 2000 µM,PfCRT^3D7 [10]; [20],3.2 ± 0.08%
